Assay results: US10556927B2 (priority 2014, dated 2020)

Tested on: HVA calcium channel currents in DRG neuronal cells
Format: cell-based, rat

COC(=O)C1=C(C)NC(C)=C(C(=O)OC)C1c1ccccc1[N+](=O)[O-] [Nifedipine]
current after loading: −734.31 pA | current before loading: −1471.35 pA | inhibition rate (10 µM): 50.09%
